# Results published in patent US20240368127A1, “HSD17B13 INHIBITORS AND USES THEREOF” (FL2022-001, Inc., priority 2021, published 2024).
# Target: T1, Recombinant human HSD17B13 enzyme (Homo sapiens, UniProt Q7Z5P4)
# T1 sequence (Q7Z5P4 20-300): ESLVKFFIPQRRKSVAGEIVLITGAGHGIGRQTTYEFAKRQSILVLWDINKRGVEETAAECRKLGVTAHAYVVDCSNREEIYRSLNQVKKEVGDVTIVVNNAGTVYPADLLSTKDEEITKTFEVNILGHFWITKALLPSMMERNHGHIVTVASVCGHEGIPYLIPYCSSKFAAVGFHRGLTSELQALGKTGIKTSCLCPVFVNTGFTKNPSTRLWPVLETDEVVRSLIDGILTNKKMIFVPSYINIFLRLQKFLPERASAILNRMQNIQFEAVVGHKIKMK
# Experiment: HSD17b13 NAD(P)H-Glo biochemical assay
# Conditions: 50 μM estradiol, 1 mM NAD+, 37° C. for 3 hours; read-out: HSD17β13 IC50
# Procedure, shortened: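 Enzyme preincubated with inhibitor 20 min at RT in 20 mM Tris pH7.4, 0.002% Tween-20, 0.02% BSA, then reacted 3 h at 37° C with 50 μM estradiol and 1 mM NAD+ (final). NADH formation read by NAD(P)H-Glo luminescence after 1 h at RT.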
row,Compound,IC50
1,"CN1CCN(c2ncc3c(-c4cc(C(F)(F)F)c(F)c(O)c4F)nn(C)c3n2)C(Cc2ccccc2)C1 (stereo not shown) [Compound 5.12, 3-(6-(2-Benzyl-4-methylpiperazin-1-yl)-1-methyl-1H-pyrazolo[3,4-d]pyrimidin-3-yl)-2,6-difluoro-5-(trifluoromethyl)phenol]",≤ 100 nM
2,"Cn1nc(-c2cc(C(F)(F)F)c(F)c(O)c2F)c2cnc(N3CCNC(=O)C3Cc3ccccc3)nc21 (stereo not shown) [Compound 5.13, 3-Benzyl-4-(3-(2,4-difluoro-3-hydroxy-5-(trifluoromethyl)phenyl)-1-methyl-1H-pyrazolo[3,4-d]pyrimidin-6-yl)piperazin-2-one]",≤ 100 nM
3,"Cn1nc(-c2cc(C(F)(F)F)c(F)c(O)c2F)c2cnc(N3CCN(S(C)(=O)=O)[C@@H](Cc4ccccc4)C3)nc21 [Compound 5.14, (S)-3-(6-(3-Benzyl-4-(methylsulfonyl)piperazin-1-yl)-1-methyl-1H-pyrazolo[3,4-d]pyrimidin-3-yl)-2,6-difluoro-5-(trifluoromethyl)phenol]",≤ 100 nM
4,"Cn1nc(-c2cc(C(F)(F)F)c(F)c(O)c2F)c2cnc(N3CCN(S(C)(=O)=O)[C@H](Cc4ccccc4)C3)nc21 [Compound 5.15, (R)-3-(6-(3-Benzyl-4-(methylsulfonyl)piperazin-1-yl)-1-methyl-1H-pyrazolo[3,4-d]pyrimidin-3-yl)-2,6-difluoro-5-(trifluoromethyl)phenol]",≤ 100 nM
5,"Cn1nc(-c2cc(C(F)(F)F)c(F)c(O)c2F)c2cnc(N3CCCC[C@H]3Cc3ccccc3)nc21 [Compound 5.16, (S)-3-(6-(2-Benzylpiperidin-1-yl)-1-methyl-1H-pyrazolo[3,4-d]pyrimidin-3-yl)-2,6-difluoro-5-(trifluoromethyl)phenol]",≤ 100 nM
6,"Cn1nc(-c2cc(C(F)(F)F)c(F)c(O)c2F)c2cnc(N3CCC[C@H]3Cc3ccccc3)nc21 [Compound 5.17, (S)-3-(6-(2-Benzylpyrrolidin-1-yl)-1-methyl-1H-pyrazolo[3,4-d]pyrimidin-3-yl)-2,6-difluoro-5-(trifluoromethyl)phenol]",≤ 100 nM
7,"CS(=O)(=O)N1CCN(c2ncc3c(-c4cc(C(F)(F)F)c(F)c(O)c4F)n[nH]c3n2)[C@H](Cc2ccccc2)C1 [Compound 5.18, (R)-3-(6-(2-Benzyl-4-(methylsulfonyl)piperazin-1-yl)-1H-pyrazolo[3,4-d]pyrimidin-3-yl)-2,6-difluoro-5-(trifluoromethyl)phenol]",≤ 100 nM
8,"Cn1nc(-c2cc(C(F)(F)F)c(F)c(O)c2F)c2cnc(N3CCC3Cc3ccccc3)nc21 (stereo not shown) [Compound 5.19, 3-(6-(2-Benzylazetidin-1-yl)-1-methyl-1H-pyrazolo[3,4-d]pyrimidin-3-yl)-2,6-difluoro-5-(trifluoromethyl)phenol]",≤ 100 nM
9,"Oc1c(F)c(-c2n[nH]c3nc(N4CCOC[C@H]4Cc4ccccc4)ncc23)cc(C(F)(F)F)c1F [Compound 5.20, (R)-3-(6-(3-Benzylmorpholino)-1H-pyrazolo[3,4-d]pyrimidin-3-yl)-2,6-difluoro-5-(trifluoromethyl)phenol]",≤ 100 nM
10,"Cc1ccc(C[C@@H]2COCCN2c2ncc3c(-c4cc(C(F)(F)F)c(F)c(O)c4F)nn(C)c3n2)cc1 [Compound 5.21, (R)-2,6-Difluoro-3-(1-methyl-6-(3-(4-methylbenzyl)morpholino)-1H-pyrazolo[3,4-d]pyrimidin-3-yl)-5-(trifluoromethyl)phenol]",≤ 100 nM
11,"CS(=O)(=O)N1CCN(c2ncc3c(-c4cc(C(F)(F)F)c(F)c(O)c4F)n[nH]c3n2)C[C@@H]1Cc1ccccc1 [Compound 5.22, (S)-3-(6-(3-Benzyl-4-(methylsulfonyl)piperazin-1-yl)-1H-pyrazolo[3,4-d]pyrimidin-3-yl)-2,6-difluoro-5-(trifluoromethyl)phenol]",≤ 100 nM
12,"Cn1nc(-c2cc(C(F)(F)F)c(F)c(O)c2F)c2cnc(N3CCOC[C@H]3Cc3ccc(F)cc3)nc21 [Compound 5.23, (R)-2,6-Difluoro-3-(6-(3-(4-fluorobenzyl)morpholino)-1-methyl-1H-pyrazolo[3,4-d]pyrimidin-3-yl)-5-(trifluoromethyl)phenol]",≤ 100 nM
13,"Cn1nc(-c2cc(C(F)(F)F)c(F)c(O)c2F)c2cnc(N3CCOC[C@H]3Cc3cccc(F)c3)nc21 [Compound 5.24, (R)-2,6-Difluoro-3-(6-(3-(3-fluorobenzyl)morpholino)-1-methyl-1H-pyrazolo[3,4-d]pyrimidin-3-yl)-5-(trifluoromethyl)phenol]",≤ 100 nM
14,"Cn1nc(-c2cc(C(F)(F)F)c(F)c(O)c2F)c2cnc(N3CCOC[C@H]3Cc3ccccc3F)nc21 [Compound 5.25, (R)-2,6-Difluoro-3-(6-(3-(2-fluorobenzyl)morpholino)-1-methyl-1H-pyrazolo[3,4-d]pyrimidin-3-yl)-5-(trifluoromethyl)phenol]",≤ 100 nM

# More lines, now with the values ahead:
row,IC50,Compound
1,≤ 100 nM,"CN1CCN(c2ncc3c(-c4cc(C(F)(F)F)c(F)c(O)c4F)nn(C)c3n2)[C@H](Cc2ccccc2)C1 [Compound 5.26, (R)-3-(6-(2-Benzyl-4-methylpiperazin-1-yl)-1-methyl-1H-pyrazolo[3,4-d]pyrimidin-3-yl)-2,6-difluoro-5-(trifluoromethyl)phenol]"
2,≤ 100 nM,"Cn1nc(-c2cc(C(F)(F)F)c(F)c(O)c2F)c2cnc(NC3(Cc4ccccc4)CCC3)nc21 [Compound 5.27, 3-(6-((1-Benzylcyclobutyl)amino)-1-methyl-1H-pyrazolo[3,4-d]pyrimidin-3-yl)-2,6-difluoro-5-(trifluoromethyl)phenol]"
3,≤ 100 nM,"COc1ccc(C[C@@H]2COCCN2c2ncc3c(-c4cc(C(F)(F)F)c(F)c(O)c4F)nn(C)c3n2)cc1 [Compound 5.28, (R)-2,6-Difluoro-3-(6-(3-(4-methoxybenzyl)morpholino)-1-methyl-1H-pyrazolo[3,4-d]pyrimidin-3-yl)-5-(trifluoromethyl)phenol]"
4,100 to 1000 nM,"Cn1nc(-c2cc(C(F)(F)F)c(F)c(O)c2F)c2cnc(N3CCOCC3CN3CCCC3)nc21 (stereo not shown) [Compound 5.29, 2,6-Difluoro-3-(1-methyl-6-(3-(pyrrolidin-1-ylmethyl)morpholino)-1H-pyrazolo[3,4-d]pyrimidin-3-yl)-5-(trifluoromethyl)phenol]"
5,≤ 100 nM,"Cn1nc(-c2cc(C(F)(F)F)c(F)c(O)c2F)c2cnc(N3CCC[C@@H]3Cc3ccccc3)nc21 [Compound 5.30, (R)-3-(6-(2-Benzylpyrrolidin-1-yl)-1-methyl-1H-pyrazolo[3,4-d]pyrimidin-3-yl)-2,6-difluoro-5-(trifluoromethyl)phenol]"
6,≤ 100 nM,"Cn1nc(-c2cc(C(F)(F)F)c(F)c(O)c2F)c2cnc(N3CCNC[C@H]3Cc3ccccc3)nc21 [Compound 5.31, (R)-3-(6-(2-Benzylpiperazin-1-yl)-1-methyl-1H-pyrazolo[3,4-d]pyrimidin-3-yl)-2,6-difluoro-5-(trifluoromethyl)phenol]"
7,≤ 100 nM,"Cn1nc(-c2cc(C(F)(F)F)c(F)c(O)c2F)c2cnc(N3CCCCC3Cc3ccccc3)nc21 (stereo not shown) [Compound 5.32, 3-(6-(2-Benzylpiperidin-1-yl)-1-methyl-1H-pyrazolo[3,4-d]pyrimidin-3-yl)-2,6-difluoro-5-(trifluoromethyl)phenol]"
8,≤ 100 nM,"Cn1nc(-c2cc(C(F)(F)F)c(F)c(O)c2F)c2cnc(N3CCN(S(C)(=O)=O)C(CC4CC4)C3)nc21 (stereo not shown) [Compound 5.33, 3-(6-(3-(Cyclopropylmethyl)-4-(methylsulfonyl)piperazin-1-yl)-1-methyl-1H-pyrazolo[3,4-d]pyrimidin-3-yl)-2,6-difluoro-5-(trifluoromethyl)phenol]"
